Data: patent US10508104B2, “6-hydroxy-5-(phenyl/heteroarylsulfonyl)pyrimidin-4(1H)-one as APJ agonists” (Bristol-Myers Squibb Company, priority 2016, dated 2019)

target: human APJ receptor (Homo sapiens (Human), UniProt P35414); assay: Intracellular cAMP accumulation assay (APJ hcAMP, HTRF); assay type: cell-based; conditions: HEK293 cells stably expressing human APJ receptor; inhibition of forskolin-mediated cAMP production; read-out: Human APJ cAMP EC50 Potency range
How it was run: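 HEK293 cells stably expressing human APJ, 5,000 per well, incubated 30 min at rt with compound, […] and 2 μM forskolin. cAMP measured by HTRF against a cAMP standard curve as inhibition of forskolin-driven production. EC50 from variable-slope sigmoidal fit.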

Chain of human APJ receptor (P35414 whole entry): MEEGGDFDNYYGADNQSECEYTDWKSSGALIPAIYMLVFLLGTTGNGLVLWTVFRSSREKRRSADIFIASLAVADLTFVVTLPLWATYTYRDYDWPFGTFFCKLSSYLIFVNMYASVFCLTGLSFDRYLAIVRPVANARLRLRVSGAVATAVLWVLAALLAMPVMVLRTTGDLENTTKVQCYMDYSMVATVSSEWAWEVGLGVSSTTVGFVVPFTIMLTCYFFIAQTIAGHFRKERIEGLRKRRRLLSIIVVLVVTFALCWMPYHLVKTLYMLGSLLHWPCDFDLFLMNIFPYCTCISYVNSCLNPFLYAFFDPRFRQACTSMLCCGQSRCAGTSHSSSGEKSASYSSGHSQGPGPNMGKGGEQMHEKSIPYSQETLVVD

EC50, 0.01 to 10 nM:
CCOCc1nc(=O)c(S(=O)(=O)c2ccc(-c3ccncc3C)cc2)c(O)n1[C@@H](CC)c1cccc(C#N)c1 [Example 434, 3-[(1S)-1-[2-(ethoxymethyl)-6-hydroxy-5-[4-(3-methylpyridin-4-yl)benzenesulfonyl]-4-oxo-1,4-dihydropyrimidin-1-yl]propyl]benzonitrile]
CCOCc1nc(=O)c(S(=O)(=O)c2ccc(-c3cccnc3C)cc2)c(O)n1[C@@H](CC)c1cccc(C#N)c1 [Example 435, 3-[(1S)-1-[2-(ethoxymethyl)-6-hydroxy-5-[4-(2-methylpyridin-3-yl)benzenesulfonyl]-4-oxo-1,4-dihydropyrimidin-1-yl]propyl]benzonitrile]
CCOCc1nc(=O)c(S(=O)(=O)c2ccc(-c3ccc(F)nc3C)cc2)c(O)n1[C@@H](CC)c1cccc(C#N)c1 [Example 436, 3-[(1S)-1-[2-(ethoxymethyl)-5-[4-(6-fluoro-2-methylpyridin-3-yI)benzenesulfonyl]-6-hydroxy-4-oxo-1,4-dihydropyrimidin-1-yl]propyl]benzonitrile]
CCOCc1nc(=O)c(S(=O)(=O)c2ccc(-c3ccnc(F)c3C)cc2)c(O)n1[C@@H](CC)c1cccc(C#N)c1 [Example 437, 3-[(1S)-1-[2-(ethoxymethyl)-5-[4-(2-fluoro-3-methylpyridin-4-yl)benzenesulfonyl]-6-hydroxy-4-oxo-1,4-dihydropyrimidin-1-yl]propyl]benzonitrile]
CCCCc1nc(=O)c(S(=O)(=O)c2ccc(-c3ccnc(F)c3C)cc2)c(O)n1[C@@H](CC)c1ccc(F)c(C#N)c1 [Example 438, 5-[(1S)-1-{2-butyl-5-[4-(2-fluoro-3-methylpyridin-4-yl)benzenesulfonyl]-6-hydroxy-4-oxo-1,4-dihydropyrimidin-1-yl}propyl]-2-fluorobenzonitrile]
CCCCc1nc(=O)c(S(=O)(=O)c2ccc(-c3cccnc3C)cc2)c(O)n1[C@@H](CC)c1ccc(F)c(C#N)c1 [Example 439, 5-[(1S)-1-{2-butyl-6-hydroxy-5-[4-(2-methylpyridin-3-yl)benzenesulfonyl]-4-oxo-1,4-dihydropyrimidin-1-yl}propyl]-2-fluorobenzonitrile]
CCCCc1nc(=O)c(S(=O)(=O)c2ccc(-c3ccc(F)nc3C)cc2)c(O)n1[C@@H](CC)c1ccc(F)c(C#N)c1 [Example 440, 5-[(1S)-1-{2-butyl-5-[4-(6-fluoro-2-methylpyridin-3-yl)benzenesulfonyl]-6-hydroxy-4-oxo-1,4-dihydropyrimidin-1-yl}propyl]-2-fluorobenzonitrile]
CC[C@@H](c1cccc(C#N)c1)n1c(CC2CC2)nc(=O)c(S(=O)(=O)c2ccc(-c3ccncc3C)cc2)c1O [Example 441, 3-[(1S)-1-[2-(cyclopropylmethyl)-6-hydroxy-5-[4-(3-methylpyridin-4-yl)benzenesulfonyl]-4-oxo-1,4-dihydropyrimidin-1-yl]propyl]benzonitrile]
CC[C@@H](c1cccc(C#N)c1)n1c(CC2CC2)nc(=O)c(S(=O)(=O)c2ccc(-c3ccnc(F)c3C)cc2)c1O [Example 442, 3-[(1S)-1-[2-(cyclopropylmethyl)-5-[4-(2-fluoro-3-methylpyridin-4-yl)benzenesulfonyl]-6-hydroxy-4-oxo-1,4-dihydropyrimidin-1-yl]propyl]benzonitrile]
CC[C@@H](c1cccc(C#N)c1)n1c(CC2CC2)nc(=O)c(S(=O)(=O)c2ccc(-c3cccnc3C)cc2)c1O [Example 443, 3-[(1S)-1-[2-(cyclopropylmethyl)-6-hydroxy-5-[4-(2-methylpyridin-3-yl)benzenesulfonyl]-4-oxo-1,4-dihydropyrimidin-1-yl]propyl]benzonitrile]
